Experimental data published in patent US5693628A, “11-benzaldoxime-estra-diene derivatives, methods for their production and pharmaceuticals containing these compounds” (priority 1994, dated 1997).

Experiments:
[1] = molecular target: T1, progesterone receptor (Oryctolagus cuniculus, UniProt P06186); experiment: relative molar bonding affinity to progesterone receptor (competitive bonding); assay type: binding; conditions: progesterone = 100%; uterine cytosol of estradiol-primed rabbit; 3H-ORG 2058, 5 nM; 18 h, 0-4° C.
T1 construct: uterine cytosol of the estradiol-primed rabbit; from tissue; host or cells: uterus (cytosol) of estradiol-primed rabbit
T1 sequence (P06186 1-930): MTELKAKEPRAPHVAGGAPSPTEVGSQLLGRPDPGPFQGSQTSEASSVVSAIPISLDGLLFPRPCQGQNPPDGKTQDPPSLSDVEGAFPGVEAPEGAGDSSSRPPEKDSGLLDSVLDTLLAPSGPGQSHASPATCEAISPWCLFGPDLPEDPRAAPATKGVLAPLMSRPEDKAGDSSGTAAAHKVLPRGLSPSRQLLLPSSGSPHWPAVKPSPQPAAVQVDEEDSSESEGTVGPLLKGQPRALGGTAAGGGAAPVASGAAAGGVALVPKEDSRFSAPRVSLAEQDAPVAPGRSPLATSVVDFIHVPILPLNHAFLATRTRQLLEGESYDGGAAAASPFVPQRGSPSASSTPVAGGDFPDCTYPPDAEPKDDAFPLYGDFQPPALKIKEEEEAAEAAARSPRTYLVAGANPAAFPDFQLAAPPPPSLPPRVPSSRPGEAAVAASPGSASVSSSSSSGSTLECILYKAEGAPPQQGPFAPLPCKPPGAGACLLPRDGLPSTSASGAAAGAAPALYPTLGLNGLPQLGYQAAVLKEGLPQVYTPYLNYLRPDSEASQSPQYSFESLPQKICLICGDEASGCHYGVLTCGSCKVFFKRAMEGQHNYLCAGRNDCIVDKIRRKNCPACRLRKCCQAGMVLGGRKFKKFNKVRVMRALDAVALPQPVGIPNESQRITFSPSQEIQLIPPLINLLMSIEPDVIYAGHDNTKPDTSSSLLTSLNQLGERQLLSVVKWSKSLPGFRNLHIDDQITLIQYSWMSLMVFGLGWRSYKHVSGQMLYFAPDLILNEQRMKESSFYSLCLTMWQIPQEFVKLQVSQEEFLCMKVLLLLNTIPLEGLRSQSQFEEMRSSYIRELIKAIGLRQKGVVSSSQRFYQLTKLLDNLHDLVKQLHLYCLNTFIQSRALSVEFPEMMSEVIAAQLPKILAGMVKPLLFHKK
Protocol: (§1) Measurement of bonding affinity for receptors
(§2) Receptor bonding affinity was determined by competitive bonding of a specifically binding ^3 H labelled hormone (tracer) and the compound to be tested to receptors in the cytosol from animal target organs. It was tried to obtain receptor saturation and a balanced reaction. The following incubation conditions were selected:
Progesterone receptor: uterine cytosol of the estradiol-primed rabbit, kept at -30° C. in TED buffer (20 mM Tris/HCl, pH 7.4; 1 mM ethylene diamine tetraacetate, 2 mM dithio threitol) with 250 mM of saccharose.
(§3) After an incubation period of 18 hours at 0°-4° C., bonded and free steroid was separated by mixing in active carbon/dextrane (1%/0.1%), centrifuging off and measuring the bonded ^3 H activity in the supernatant.
(§4) The IC50 for the compound to be tested and for the reference substance were determined from measurements in series of concentrations.

[2] = molecular target: T2, glucocorticoid receptor (Rattus norvegicus, UniProt P06536); experiment: relative molar bonding affinity to glucocorticoid receptor (competitive bonding); assay type: binding; conditions: dexamethasone = 100%; thymus cytosol of adrenalectomized rat; 3H-dexamethasone, 20 nM; 18 h, 0-4° C.
T2 construct: thymus cytosol of the adrenalectomized rat; from tissue; host or cells: thymus (cytosol) of adrenalectomized rat
T2 sequence (P06536 1-795): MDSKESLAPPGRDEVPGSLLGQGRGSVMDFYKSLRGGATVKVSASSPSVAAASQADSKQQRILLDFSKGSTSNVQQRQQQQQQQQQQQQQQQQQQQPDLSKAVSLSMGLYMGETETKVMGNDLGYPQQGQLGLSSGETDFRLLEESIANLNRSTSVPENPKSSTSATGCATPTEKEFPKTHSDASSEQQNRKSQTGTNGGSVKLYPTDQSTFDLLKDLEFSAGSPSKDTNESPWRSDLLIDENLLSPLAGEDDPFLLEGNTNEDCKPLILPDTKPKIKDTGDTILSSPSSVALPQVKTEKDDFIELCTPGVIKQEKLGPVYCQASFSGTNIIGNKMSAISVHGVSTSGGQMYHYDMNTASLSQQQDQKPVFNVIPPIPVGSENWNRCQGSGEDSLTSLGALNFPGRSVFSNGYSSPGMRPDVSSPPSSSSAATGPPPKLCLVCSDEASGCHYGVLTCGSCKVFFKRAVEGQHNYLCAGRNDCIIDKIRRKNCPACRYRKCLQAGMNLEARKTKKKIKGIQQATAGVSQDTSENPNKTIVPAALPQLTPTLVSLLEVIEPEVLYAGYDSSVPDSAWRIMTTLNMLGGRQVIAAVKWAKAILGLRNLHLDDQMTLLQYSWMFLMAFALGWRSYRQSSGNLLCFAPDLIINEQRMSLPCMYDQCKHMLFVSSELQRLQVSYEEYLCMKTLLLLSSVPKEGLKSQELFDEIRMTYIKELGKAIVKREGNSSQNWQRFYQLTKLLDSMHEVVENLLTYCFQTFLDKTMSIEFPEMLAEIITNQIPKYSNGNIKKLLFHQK
Protocol: as §1, §2
Glucocorticoid receptor: thymus cytosol of the adrenalectomized rat, thymi kept at -30° C., buffer: TED. Tracer: ^3 H-dexamethasone, 20 nM; reference substance: dexamethasone.
as §3, §4

[3] = system: H4-IIE rat hepatoma cell line (TAT induction); experiment: Antiglucocorticoid effect: inhibition of dexamethasone-induced TAT in rat hepatoma cells; assay type: cell-based; conditions: hepatomatous cells of rats; 10^-8 M dexamethasone
From the text: FIG. 3. is a graph showing the antiglucocorticoid effect of J 867 (Example 1) in comparison to RU 486. The graph depicts the inhibition of TAT induction in a rat hepatoma cell line (the H4-IIE cell line) which were induced by 10^-8 M dexamethasone. The graph indicates the log molar antagonist concentration in the x-axis versus the maximum TAT induction as a percentage in the y-axis. The results for dexamethasone is shown as dashed lines (- - -), the IC50 is shown in solid line (----), RU 486 is shown as open boxes (.quadrature.), and J 867 is shown with closed boxes (.box-solid.).
FIG. 3 compares the antiglucocorticoid effect of J 867 and RU 486 on hepatomatous cells of rats using the TAT model.
In hepatomatous cells of rats, dexamethasone stimulates the tyrosine amino transferase enzyme (TAT). This effect is inhibited by antiglucocorticoid activity.
Antiglucocorticoid effect of J867 in hepatomatous cells of rats using the TAT model
The cell cultures were treated in DMEM under essentially the same conditions as in Example 14. The cells were spread over 24 well plates for the experiments. Substance was added to the confluent hepatomatous cells in 0.2% (v/v) ethanol for 16 hours. After the cells were carefully harvested using a scraper and a cell extract obtained using ultrasonic waves, TAT was determined according to Diamondstone.

COC[C@]1(OC)CC[C@H]2[C@@H]3CCC4=CC(=O)CCC4=C3[C@@H](c3ccc(C=NO)cc3)C[C@@]21C [Example 1, 11β-[4-(hydroximinomethyl)phenyl]-17β-methoxy-17α-methoxymethyl-estra-4,9-diene-3-on]
relative molar bonding affinity (RBA) to progesterone receptor [1]: 302%
relative molar bonding affinity (RBA) to glucocorticoid receptor [2]: 78%
antiglucocorticoid effect (TAT) compared with RU 486 [3]: clearly weaker antiglucocorticoid effect than RU 486
